Consider 14 compounds from PubChem BioAssay (NCI).

Among the test systems are NCI-H23 lung; SN12C renal; T-47D breast; MDA-MB-435; MDA-N; HOP-18 NSCLC; BT-549 breast; HOP-92 NSCLC; KM20L2 colon; XF 498 CNS; SF-295 CNS; SW-620 colon.
Test in all cases: NCI-60 cell line screen, 48 h

Values joined by “and” are separate entries in the source; they are usually repeats but may differ in a detail not shown here. Equal entries are not always repeated.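 Results reflect a 48-hour exposure of cells in 96-well plates to compound at five concentrations. TGI: concentration producing complete growth inhibition.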

As for `CC[C@H]1CN2CCc3cc(OC)c(OC)cc3[C@@H]2C[C@@H]1C[C@H]1NCCc2cc(OC)c(OC)cc21`, the TGI in the assay with NCI-H23 lung is 0.14 µM and 0.026 µM; with SN12C renal, 0.295 µM and 0.271 µM; in the assay with T-47D breast, 0.0887 µM; in the assay on MDA-MB-435 it was 0.0442 µM; with MDA-N, 0.0589 µM; in the assay with HOP-18 NSCLC, 0.403 µM. The TGI with BT-549 breast is 0.658 µM; with HOP-92 NSCLC it was 0.196 µM and 0.0779 µM; with KM20L2 colon, 0.488 µM and 0.312 µM.

Turning to `O=S(=O)(O)c1cc2ccc1/C=C\c1ccc(cc1S(=O)(=O)O)N=Nc1ccc(c(S(=O)(=O)O)c1)/C=C\c1ccc(cc1S(=O)(=O)O)N=N2`, the TGI in the assay on XF 498 CNS, with SF-295 CNS, in the assay with NCI-H23 lung, with SN12C renal, with SW-620 colon and in the assay with HOP-18 NSCLC was greater than 100 µM throughout. For the same compound, the TGI in the assay with HOP-92 NSCLC and with KM20L2 colon was greater than 100 µM in each case.

In the case of `O=c1c2ccccc2nc2[nH][nH]c(=S)n12`, the TGI with SF-295 CNS, in the assay with NCI-H23 lung, in the assay on SN12C renal, in the assay on T-47D breast, in the assay with MDA-MB-435 and with MDA-N was greater than 100 µM throughout. Besides, the TGI with SW-620 colon, with BT-549 breast and in the assay with HOP-92 NSCLC was greater than 100 µM in each case.

With `BrC/C=C/C[P+](c1ccccc1)(c1ccccc1)c1ccccc1`, the TGI was 43.6 µM in the assay on XF 498 CNS; 60.6 µM in the assay with SF-295 CNS; greater than 100 µM with NCI-H23 lung; greater than 100 µM in the assay with SN12C renal; greater than 100 µM with SW-620 colon; greater than 100 µM with HOP-18 NSCLC. For the same compound, the figures for the TGI in the assay on HOP-92 NSCLC and in the assay with KM20L2 colon were 36.1 µM and greater than 100 µM, respectively.

As to `O=C(NCCCN(CCCCN(CCCNC(=O)C(F)(F)F)Cc1ccccc1)Cc1ccccc1)C(F)(F)F`, the TGI stood at 30 µM with SF-295 CNS; 30.9 µM in the assay on NCI-H23 lung; 36.5 µM in the assay on SN12C renal; 40.6 µM in the assay on T-47D breast; 33.9 µM with MDA-MB-435; 29.1 µM in the assay with MDA-N. The values for the TGI in the assay on SW-620 colon, in the assay on BT-549 breast and with HOP-92 NSCLC were 34.2 µM, 28.1 µM and 38.1 µM, respectively.

In the case of `NNC(=O)c1ccc[n+](CCc2ccccc2)c1`, the TGI in the assay with SF-295 CNS, in the assay with NCI-H23 lung, with SN12C renal, in the assay on T-47D breast, with MDA-MB-435 and in the assay on MDA-N was greater than 100 µM throughout. Moreover, the TGI in the assay with SW-620 colon, with BT-549 breast and in the assay on HOP-92 NSCLC was greater than 100 µM in each case.

Take `Cc1cc2[nH]c3[nH]c(=O)[nH]c(=O)c3c2cc1C`: the TGI with SF-295 CNS, in the assay with NCI-H23 lung, with SN12C renal, in the assay with T-47D breast, in the assay on MDA-MB-435 and in the assay on MDA-N was greater than 100 µM in each case. Besides, the TGI in the assay with SW-620 colon, in the assay on BT-549 breast and with HOP-92 NSCLC was greater than 100 µM each time.

On to `CC(C)/C(Cl)=N\OC(=O)Nc1ccc(C#N)cc1`, for which the TGI in the assay on SF-295 CNS amounted to 33.2 µM; in the assay on NCI-H23 lung, 30 µM; with SN12C renal, 26.6 µM; in the assay on T-47D breast it was 40.2 µM; in the assay with MDA-MB-435, 20.8 µM; with MDA-N, 17.3 µM. Also, the TGI turned out to be 3.36 µM in the assay with SW-620 colon, 26.6 µM in the assay with BT-549 breast and 2.98 µM in the assay on HOP-92 NSCLC.

As for `CC(=O)O[C@]12CCCCCC1C1(O)C(O)CCC[C@H]12` (stereo partly specified), the TGI in the assay with XF 498 CNS, in the assay on SF-295 CNS, in the assay with NCI-H23 lung, in the assay on SN12C renal, in the assay on SW-620 colon and with HOP-18 NSCLC was greater than 100 µM in each case. Besides, the TGI in the assay on KM20L2 colon was greater than 100 µM.

Consider `Cc1csc(-c2cn(C)c3c2C(=O)C(N)=CC3=O)n1`, for which the TGI with SF-295 CNS was 20.8 µM; in the assay with NCI-H23 lung, greater than 30 µM; in the assay on SN12C renal, greater than 100 µM; in the assay with T-47D breast, greater than 100 µM; in the assay on MDA-MB-435, 15.3 µM; in the assay on MDA-N it was 45.2 µM. Besides, the TGI in the assay on SW-620 colon, in the assay on BT-549 breast and with HOP-92 NSCLC was greater than 100 µM each time.

Consider `CCN(CC)CCOc1ccc(N2C(=O)c3cc(OC)c(OC)cc3C2=O)cc1`, for which the TGI in the assay with SF-295 CNS, in the assay with NCI-H23 lung, with SN12C renal, with T-47D breast, in the assay with MDA-MB-435 and in the assay on MDA-N was greater than 100 µM throughout. For the same compound, the TGI in the assay on SW-620 colon, in the assay with BT-549 breast and with HOP-92 NSCLC was greater than 100 µM throughout.

In the case of `CCOC(=N)n1c(=O)n(C2=NCCN2)c2ccccc21`, the TGI with SF-295 CNS, in the assay on NCI-H23 lung, with SN12C renal, with T-47D breast, with MDA-MB-435 and with MDA-N was greater than 100 µM throughout. Besides, the TGI in the assay with SW-620 colon, in the assay with BT-549 breast and in the assay on HOP-92 NSCLC was greater than 100 µM throughout.

Consider `O=C1C[C@H](Sc2ccccc2)C2(OCCO2)[C@@H](Sc2ccccc2)C1`, for which the TGI was 17.9 µM with SF-295 CNS; 6.08 µM in the assay on NCI-H23 lung; 10.6 µM in the assay with SN12C renal; greater than 43.5 µM in the assay with T-47D breast; 7.97 µM in the assay with MDA-MB-435; 6.83 µM in the assay with MDA-N. Besides, the TGI in the assay with SW-620 colon was determined as 10.4 µM; in the assay on BT-549 breast, 5.41 µM; with HOP-92 NSCLC it was 5.74 µM.

As for `CCOC(=O)/C=C(\C)c1ccc(C)cc1C`, the TGI with XF 498 CNS is 43.2 µM; in the assay with SF-295 CNS, greater than 100 µM; in the assay on NCI-H23 lung, greater than 100 µM; in the assay on SN12C renal, greater than 100 µM; in the assay with SW-620 colon, 37.8 µM; in the assay on HOP-18 NSCLC it was greater than 100 µM. In addition, the TGI in the assay with HOP-92 NSCLC is 63.8 µM; in the assay on KM20L2 colon, greater than 100 µM.
